pIC50: −log10 of the molar value. Numbered stars: 1 amine (or outer) side, 2 acyl side, 3 side chain; on linkers, the order of the positions; unused ones are H or OH. Bridge positions count the residues as written; N and C are the ends. Square brackets hold non-standard residues; d marks the D form. Peptide text beside a SMILES is read from it. Adda = CO[C@@H](Cc1ccccc1)[C@@H](C)/C=C(C)/C=C/[C@H](N[*:1])[C@H](C)C(=O)[*:2]; dAsp(3S-Me) = C[C@H](C(=O)[*:3])[C@@H](N[*:1])C(=O)[*:2]; d(γGlu) = O=C(O)[C@@H](CCC(=O)[*:2])N[*:1]; NMeDha = C=C(NC)C(=O)O

Usually inhibition stands for the share of the control response that was lost under treatment. A higher inhibition goes with a strong effect. Broadly, the pIC50 is −log10 of the IC50, conventionally taken in molar units. Read a low pIC50 as a high IC50.

One test can be described thus: Percentage inhibition of murine protein phosphatase 2A at 1 mM.
Compound `CC(C)C[C@H]1NC(=O)[C@H](C)NC(=O)[C@@H](C)NC(=O)CC[C@@H](C(=O)O)NC(=O)CCNC(=O)[C@@H](C)NC(=O)C[C@@H](C(=O)O)NC1=O` returned an inhibition of 3%.

Take `CC(C)C[C@H](NC(=O)[C@@H](C)N)C(=O)N[C@@H](CC(=O)N[C@@H](C)C(=O)N[C@@H](CS)C(=O)N[C@H](CCC(=O)N[C@@H](CC(=O)O)C(N)=O)C(=O)O)C(=O)O`: the inhibition amounted to 18%. Still for that read-out and setting: to `CC(C)C[C@H]1NC(=O)[C@H](C)NC(=O)[C@@H](CC(=O)O)NC(=O)[C@H](CCC(=O)O)NC(=O)CCNC(=O)[C@@H](C)NC(=O)[C@H](CC(=O)O)NC1=O` belongs 21%; to `CC(C)C[C@H](NC(=O)[C@@H](C)N)C(=O)N[C@@H](CC(=O)N[C@@H](C)C(=O)N[C@@H](CC(=O)O)C(=O)N[C@H](CCC(=O)N[C@@H](C)C(=O)O)C(=O)O)C(=O)O`, 21%; to `CC(C)C[C@H](NC(=O)[C@@H](C)NC(=O)[C@H](C)NC(=O)[C@@H](CCC(=O)O)NC(=O)CCN)C(=O)N[C@H](CC(=O)O)C(=O)N[C@@H](C)C(=O)O`, 16%.

Regarding `CC(C)C[C@H]1NC(=O)[C@H](C)NC(=O)[C@@H](CC(=O)O)NC(=O)CCCNC(=O)[C@@H](CS)NC(=O)[C@@H](C)NC(=O)C[C@@H](C(=O)O)NC1=O`, the inhibition was 45%. Take `CC(C)C[C@H]1NC(=O)[C@H](C)NC(=O)[C@@H](CC(=O)O)NC(=O)CCCNC(=O)CCNC(=O)[C@@H](C)NC(=O)C[C@@H](C(=O)O)NC1=O`: the inhibition was found to be 42%. The compound `CC(C)C[C@H](NC(=O)[C@@H](C)N)C(=O)NCCC(=O)N[C@@H](C)C(=O)N[C@H](CC(=O)O)C(=O)N[C@H](CCC(=O)O)C(=O)N[C@@H](C)C(=O)O` displayed an inhibition of 14%. Regarding `CC(C)C[C@H](NC(=O)[C@@H](C)N)C(=O)NCCC(=O)N[C@@H](C)C(=O)N[C@@H](CC(=O)O)C(=O)N[C@@H](CCC(=O)N[C@@H](C)C(=O)O)C(=O)O`, the inhibition was found to be 12%.

Turning to `CC(C)C[C@H](NC(=O)[C@@H](C)NC(=O)[C@H](C)NC(=O)CC[C@@H](NC(=O)CCN)C(=O)O)C(=O)N[C@H](CC(=O)N[C@@H](C)C(=O)O)C(=O)O`, the inhibition was 15%. `CC(C)C[C@H](NC(=O)[C@@H](C)NC(=O)[C@H](C)NC(=O)[C@@H](CCC(=O)O)NC(=O)[C@@H](N)CS)C(=O)N[C@H](CC(=O)O)C(=O)N[C@@H](C)C(=O)O` gave an inhibition of 22%. `CC(C)C[C@@H]1NC(=O)[C@@H](C)NC(=O)[C@H](CC(=O)O)NC(=O)[C@@H](CCC(=O)O)NC(=O)[C@H](CS)NC(=O)[C@H](C)NC(=O)[C@@H](CC(=O)O)NC1=O` yielded an inhibition of 86%. Same read-out and setting: the value for `CC(C)C[C@H](NC(=O)[C@@H](C)NC(=O)[C@H](C)NC(=O)CC[C@@H](NC(=O)[C@@H](N)CS)C(=O)O)C(=O)N[C@H](CC(=O)N[C@@H](C)C(=O)O)C(=O)O` was 19%; that for `CC(C)C[C@H](NC(=O)[C@@H](C)N)C(=O)N[C@H](CC(=O)O)C(=O)N[C@@H](C)C(=O)N[C@@H](CS)C(=O)N[C@H](CCC(=O)O)C(=O)N[C@@H](CC(=O)O)C(N)=O` was 17%. On the same count and under the same terms, the value for `CC(C)C[C@H](NC(=O)[C@@H](C)N)C(=O)N[C@@H](CC(=O)N[C@@H](C)C(=O)NCCC(=O)N[C@H](CCC(=O)N[C@@H](C)C(=O)O)C(=O)O)C(=O)O` was 12%. Compound `CC(C)C[C@H](NC(=O)[C@@H](C)N)C(=O)N[C@@H](CC(=O)N[C@@H](C)C(=O)N[C@@H](C)C(=O)N[C@@H](CCC(=O)N[C@@H](C)C(=O)O)C(=O)O)C(=O)O` had an inhibition of 22%.

`CC(C)C[C@H](NC(=O)[C@@H](C)N)C(=O)N[C@H](CC(=O)O)C(=O)N[C@@H](C)C(=O)NCCC(=O)N[C@H](CCC(=O)O)C(=O)N[C@@H](CC(=O)O)C(N)=O` gave an inhibition of 1%.

For the compound `CC(C)C[C@H](NC(=O)[C@@H](C)N)C(=O)N[C@@H](CC(=O)N[C@@H](C)C(=O)NCCC(=O)N[C@H](CCC(=O)N[C@@H](CC(=O)O)C(N)=O)C(=O)O)C(=O)O`, the inhibition came out at 11%.

The compound `C[C@H](NC(=O)[C@@H](CC(=O)O)NC(=O)[C@H](C)NC(=O)[C@@H](CCC(=O)O)NC(=O)CCN)C(=O)O` came in with an inhibition of 30%.

As to `CC(C)C[C@H](NC(=O)[C@@H](C)N)C(=O)N[C@H](CC(=O)O)C(=O)N[C@@H](C)C(=O)N[C@@H](CC(=O)O)C(=O)N[C@H](CCC(=O)O)C(=O)N[C@@H](C)C(=O)O`, the inhibition was 11%.

Consider `C[C@H](NC(=O)C[C@H](NC(=O)[C@H](C)NC(=O)CC[C@@H](NC(=O)CCN)C(=O)O)C(=O)O)C(=O)O`, for which the inhibition came out at 19%.

A further test in a line: Compound was tested for inhibition of protein phosphatase 2A (PP2A).
The compound `CC(C)C[C@H]1NC(=O)[C@H](C)NC(=O)[C@@H](CC(=O)O)NC(=O)CCCNC(=O)[C@@H](CS)NC(=O)[C@@H](C)NC(=O)C[C@@H](C(=O)O)NC1=O` had a pIC50 of 2.00.

As for `CC(C)C[C@@H]1NC(=O)[C@@H](C)NC(=O)[C@H](CC(=O)O)NC(=O)[C@@H](CCC(=O)O)NC(=O)[C@H](CS)NC(=O)[C@H](C)NC(=O)[C@@H](CC(=O)O)NC1=O`, the negative-log IC50 (pIC50) was 3.30.

For the compound `C[C@H](NC(=O)[C@@H](CC(=O)O)NC(=O)[C@H](C)NC(=O)[C@@H](CCC(=O)O)NC(=O)CCN)C(=O)O`, the pIC50 is 2.00. Still for that read-out and setting: to `C=C1C(=O)N[C@H](C)C(=O)N[C@@H](CC(C)C)C(=O)N[C@@H](C(=O)O)[C@H](C)C(=O)N[C@@H](CCCNC(=N)N)C(=O)N[C@@H](/C=C/C(C)=C/[C@H](C)[C@H](Cc2ccccc2)OC)[C@H](C)C(=O)N[C@@H](C(=O)O)CCC(=O)N1C` [MICROCYSTIN-LR] (R[Adda][d(γGlu)][NMeDha][dA]L[dAsp(3S-Me)]-OH; lactam N-7) belongs 3.70.
